Experimental data published in PMC3506129 (Journal of Medicinal Chemistry, 2012).
Read-outs that look alike come from different tables or passages of the source. Marks after values point to notes of the source that are not given here.

Tests used:
[1] = Plasma and tumor drug levels in SW620 xenograft-bearing mice; format: in vivo, mouse; conditions: po dose at MTD
[2] = test system: CHK1 S296 autophosphorylation in SW620 human colon cancer xenografts; experiment: Gemcitabine-induced CHK1 phosphorylation in SW620 xenografts; format: in vivo, mouse; conditions: single po dose at MTD (20: 160, 26: 300 mg/kg); 12 h after gemcitabine
CaCo-2 permeability = format: in vitro ADME; conditions: human
[3] = test system: HT29 human colon cancer xenograft; conditions: cited from earlier work; for tumor growth delay (days), 26: HT29, q7d × 3, 26 75 mg/kg po alone
121 kinases = conditions: against 89 out of the 121 enzymes, screen at 10 μM
[4] = test system: Calu6 human non-small cell lung cancer xenograft; conditions: Calu6, q7d × 3, gemcitabine 100 mg/kg iv + 26 75 mg/kg po; cited from earlier work
[5] = test system: pS296 CHK1 in HT29 colon tumor xenografts; conditions: single doses 100–300 mg/kg po; cited from earlier work
[6] = test system: SW620 human colon cancer xenograft; conditions: SW620, q4d × 3, gemcitabine 100 mg/kg iv + 26 75 mg/kg po; cited from earlier work
[7] = test system: panel of 140 representative kinases; experiment: Radiometric kinase panel summary, 1 μM; format: biochemical, human; conditions: of 140 kinases
AMPK = experiment: radiometric kinase profiling; format: biochemical; conditions: 1 μM
CHK2 = CHK2 (Homo sapiens, UniProt O96017); experiment: CHK2 DELFIA kinase assay; format: biochemical; conditions: data not shown
Sequence of CHK2 (O96017 whole entry, species assumed): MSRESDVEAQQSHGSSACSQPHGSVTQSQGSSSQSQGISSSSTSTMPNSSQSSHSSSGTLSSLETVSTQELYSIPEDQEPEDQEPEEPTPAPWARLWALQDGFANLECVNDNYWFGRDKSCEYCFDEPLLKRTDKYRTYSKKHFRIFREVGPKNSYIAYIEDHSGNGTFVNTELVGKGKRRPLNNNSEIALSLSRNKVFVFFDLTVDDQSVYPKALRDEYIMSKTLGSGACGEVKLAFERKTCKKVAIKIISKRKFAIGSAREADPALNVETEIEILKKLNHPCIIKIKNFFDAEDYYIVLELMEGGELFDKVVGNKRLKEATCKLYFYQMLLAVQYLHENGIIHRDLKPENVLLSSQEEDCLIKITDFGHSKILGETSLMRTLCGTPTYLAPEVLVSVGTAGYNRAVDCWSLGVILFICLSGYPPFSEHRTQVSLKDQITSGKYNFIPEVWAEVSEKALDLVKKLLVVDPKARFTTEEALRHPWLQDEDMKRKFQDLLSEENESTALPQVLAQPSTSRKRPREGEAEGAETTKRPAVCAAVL

CDK1 = CDK1 (Homo sapiens, UniProt P06493); conditions: data not shown
Sequence of CDK1 (P06493 whole entry, looked up): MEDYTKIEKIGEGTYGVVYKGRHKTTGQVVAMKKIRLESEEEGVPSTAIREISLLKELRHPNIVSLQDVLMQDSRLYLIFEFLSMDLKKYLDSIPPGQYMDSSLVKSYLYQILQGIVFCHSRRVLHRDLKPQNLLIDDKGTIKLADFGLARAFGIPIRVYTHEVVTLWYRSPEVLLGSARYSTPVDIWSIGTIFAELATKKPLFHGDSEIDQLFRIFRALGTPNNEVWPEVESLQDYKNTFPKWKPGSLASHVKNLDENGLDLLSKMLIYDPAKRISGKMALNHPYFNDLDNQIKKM

[8] = 10 mg/kg iv, 6 h, 9 normalized from 5 mg/kg, 24 from 1 mg/kg, 20 from full PK

CNc1cc(Nc2cnc(C#N)c(O[C@H](C)CN(C)C)n2)ncc1-c1cnn(C)c1 [Compound 20, (R)-3-((1-(Dimethylamino)propan-2-yl)oxy)-5-((5-(1-methyl-1H-pyrazol-4-yl)-4-(methylamino)pyridin-2-yl)amino)pyrazine-2-carbonitrile]
fall in drug concentration between 6 and 12 h [1]: ca. 20 fold | inhibition of CHK1 S296 autophosphorylation, 12 h [2]: less powerful effect | mouse plasma level iv, 1 h (10 mg/kg iv, 1 h, 9 normalized from 5 mg/kg, 24 from 1 mg/kg, 20 from full PK): 910 (±23) ^h nM | mouse plasma level iv, 6 h [8]: 45 (±10) ^h nM | mouse plasma level po, 1 h (10 mg/kg po, 1 h): 555 (±82) ^h nM | mouse plasma level po, 6 h (10 mg/kg po, 6 h): 57 (±7) ^h nM

CNc1cc(Nc2cnc(C#N)c(O[C@H](C)CN(C)C)n2)ncc1C(F)(F)F [Compound 15]
efflux ratio (CaCo-2 permeability): > 6

COc1cc(Nc2cnc(C#N)c(O[C@H](C)CN(C)C)n2)ncc1-c1cnn(C)c1 [Compound 26, (R)-3-((1-(Dimethylamino)propan-2-yl)oxy)-5-((4-methoxy-5-(1-methyl-1H-pyrazol-4-yl)pyridin-2-yl)amino)pyrazine-2-carbonitrile]
tumor growth delay (days), 26 ([3]; gemcitabine experiment): –1.8 (±2.1) days | tumor growth delay (days), 26 ([3]; irinotecan experiment): 0.30 (±1.4) days | tumor growth delay (days), combination ([3]; HT29, q7d × 3, gemcitabine 100 mg/kg iv + 26 75 mg/kg po at 24 and 48 h): 11.4 (±3.3) days | tumor growth delay (days), combination ([3]; HT29, q7d × 3, irinotecan 12.5 mg/kg i.p. + 26 75 mg/kg po): 13.5 (±2.4) days | fall in drug concentration between 6 and 12 h [1]: 2–3 fold | inhibition of CHK1 S296 autophosphorylation, 12 h [2]: robust inhibition | selectivity for CHK1 (121 kinases): > 1000 fold | tumor growth delay (days), combination [4]: 15.9 (±2.5) days | duration of inhibition of gemcitabine-induced pS296 CHK1 [5]: up to 24 h | enhancement in plasma levels at the 1 h time point relative to 20 (10 mg/kg, 1 h): 2 fold | tumor growth delay (days), combination [6]: 6.0 (±2.4) days | number of enzymes strongly inhibited (>80%) [7]: 7 | inhibition (strongly inhibited) (AMPK): > 80%

CNc1cc(Nc2cnc(C#N)c(O[C@@H]3CCN(C)C3)n2)ncc1-c1cnn(C)c1 [Compound 24]
mouse plasma level iv, 6 h [8]: <20 ^i, ^j nM

COC(=O)c1cnc(Nc2cnc(C#N)c(O[C@@H]3CCNC3)n2)cc1N(C)C [Compound 10]
selectivity for CHK1 inhibition over CHK2 (CHK2): greater than 100 fold | selectivity for CHK1 inhibition over CDK1 (CDK1): greater than 100 fold
